Here are results for seven compounds from patent US11542492B2 (Celgene CAR LLC, priority 2009, dated 2023).

Where only a bound is given, the exact number is not on record here.

In general, Ki refers to the equilibrium dissociation constant of an inhibitor or competing ligand from its target.

For experiment [1], the target named is T1, recombinant human ML-IAPβ (Homo sapiens, UniProt Q96CA5).
T1 construct: purchased R&D Systems 818-IA
T1 sequence (Q96CA5 1-280 isoform Q96CA5-2): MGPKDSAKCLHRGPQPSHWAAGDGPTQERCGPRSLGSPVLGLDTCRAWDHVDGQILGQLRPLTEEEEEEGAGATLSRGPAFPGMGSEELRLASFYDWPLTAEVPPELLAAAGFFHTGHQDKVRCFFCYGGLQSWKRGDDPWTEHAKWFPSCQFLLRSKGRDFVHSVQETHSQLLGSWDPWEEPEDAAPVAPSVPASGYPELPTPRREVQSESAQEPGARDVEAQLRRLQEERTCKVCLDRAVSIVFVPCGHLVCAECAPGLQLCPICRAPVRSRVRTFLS
Kind of experiment: Fluorescence polarization competition binding assay, ML-IAPβ. The following applies: ML-IAP, 2 h. The procedure:
(§1) Homogeneous, Fluorescence Polarization, Competition Binding Assay Protocol for Affinity Assessment of Compound Binding to XIAP, cIAP-1 and ML-IAPβ BIR3 Domains
(§2) 1× stocks of recombinant human XIAP; BIR3 domain (895-XB), recombinant human cIAP-1 (818-IA) or recombinant human ML-IAPβ (818-IA) from R&D Systems and Fluorescence Polarization (FP) assay tracer (Atto-647 tagged IAP inhibitor probe compound) were prepared in assay buffer consisting of 25 mM Tris-HCL, pH 7.5 (Sigma), 10 mM […] (Sigma), 1 mM DTT (Fluka) and 0.005% TritonX-100 (Pierce). While IAP protein and tracer equilibrated at ambient temp in the dark (30-60 min), 100× stocks of test compound were prepared in 50% DMSO:H2O, serially diluted and spotted (0.5 µL/well) in duplicate wells of a 384-well, flat bottom, polypropylene, black assay plate (Greiner #781209). […] Competition binding between test compounds and assay tracer was initiated by the addition of 50 µL/well of pre-equilibrated IAP protein and assay tracer. Displacement of the assay tracer was measured in a Synergy plate reader from BioTek (Winooski, Vt.) at λex620/λem680 through a 660 nm half-sized dicroich mirror and S/P polarizing filters every 30 min for 3 hr. (See Huang, X., Journal of Biomolecular Screening 8, 2003). The resulting compound dose response data were fit to a one-site binding Ki model in GraphPad Prism from GraphPad Software (San Diego, Calif.).

The target of experiment [2] is T2, recombinant human XIAP; BIR3 domain (Homo sapiens, UniProt P98170).
T2 construct: recombinant human XIAP; BIR3 domain (895-XB); purchased R&D Systems 895-XB
T2 sequence (P98170 252-356 limits assumed): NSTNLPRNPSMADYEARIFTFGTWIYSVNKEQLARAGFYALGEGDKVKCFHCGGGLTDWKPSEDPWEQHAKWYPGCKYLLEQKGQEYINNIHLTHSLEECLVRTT
As to the kind of experiment: Fluorescence polarization competition binding assay, XIAP BIR3 domain. The method, then:
as §1, §2
A general note: In fluorescence polarisation assays a small probe gives low polarisation when free and higher when bound to something large.

The target of another experiment is T3, XIAP (Homo sapiens, UniProt P98170).
T3 construct: recombinant human XIAP; BIR3 domain (895-XB)
T3 sequence (P98170 252-356 limits assumed): as above
Kind of experiment: MALDI mass spectrometric analysis of intact XIAP incubated with compound. The class given is binding. The following applies: 18 hr, 10-fold excess of compound to protein. The method, then: Intact XIAP was incubated for 18 hr at a 10-fold excess of VII-1 to protein. 3ul aliquots of the samples were diluted with 10 ul of 0.1% TFA prior to micro C4 ZipTipping directly onto the MALDI target using Sinapinic acid as the desorption matrix (10 mg/mL in 0.1% TFA:Acetonitrile 50:50).
Intact XIAP was incubated for 18 hr at a 10-fold excess of VII-21 to protein. 3 ul aliquots of the samples were diluted with 10 ul of 0.1% TFA prior to micro C4 ZipTipping directly onto the MALDI target using Sinapinic acid as the desorption matrix (10 mg/mL in 0.1% TFA:Acetonitrile 50:50).

A further experiment has as its target T4, recombinant human cIAP-1 (Homo sapiens, UniProt Q13490).
T4 construct: purchased R&D Systems 818-IA
As to the kind of experiment: Fluorescence polarization competition binding assay, cIAP-1. The following applies: c-IAP-1, 3 h. The procedure: as §1, §2

A further experiment addresses T5, NS3/4A C159S (Hepatitis C virus genotype 1b, UniProt Q9WMX2, C1185S).
T5 construct: expressed in transfected cells
Kind of experiment: Lysine modification using biotinylated covalent probe in cell lysate. It is filed as binding, HCV. Particulars: FIG. 10, 1 μM probe, 1h. From the text:
The pCI-Neo-FLAG-NS3/4a-WT plasmid was constructed by amplifying the NS3 and 4a sequence from the pFK-I389-luc-ubi-neo-NS3-3′ET vector using Accuprime Pfx (Invitrogen) according to manufacturer's instructions and with primers that added an NheI site and FLAG epitope tag to the 5′ end and an XbaI site to the 3′ end.
The resulting PCR product was then digested with NheI and XbaI and ligated into the same sites of the pCI-Neo vector (Invitrogen). The WT construct was then used as a template for site-directed mutagenesis using the Quickchange II Site-Directed Mutagenesis kit […] and primers containing the K136R or C159S mutations (below).
Lysates were treated with 1 μM of biotinylated covalent probe, XVI-27, for 1h and immunoprecipitated with anti-NS3 antibody (mouse). Immunoblots were probed with streptavidin and anti-NS3 antibody (goat). Successful modification by the covalent probe was assessed and quantified relative to WT NS3.

A further experiment deals with T6, p120γ (PI3Kγ) (Homo sapiens, UniProt P48736).
T6 construct: purchased BPS Bioscience 40625
T6 sequence (P48736 whole entry): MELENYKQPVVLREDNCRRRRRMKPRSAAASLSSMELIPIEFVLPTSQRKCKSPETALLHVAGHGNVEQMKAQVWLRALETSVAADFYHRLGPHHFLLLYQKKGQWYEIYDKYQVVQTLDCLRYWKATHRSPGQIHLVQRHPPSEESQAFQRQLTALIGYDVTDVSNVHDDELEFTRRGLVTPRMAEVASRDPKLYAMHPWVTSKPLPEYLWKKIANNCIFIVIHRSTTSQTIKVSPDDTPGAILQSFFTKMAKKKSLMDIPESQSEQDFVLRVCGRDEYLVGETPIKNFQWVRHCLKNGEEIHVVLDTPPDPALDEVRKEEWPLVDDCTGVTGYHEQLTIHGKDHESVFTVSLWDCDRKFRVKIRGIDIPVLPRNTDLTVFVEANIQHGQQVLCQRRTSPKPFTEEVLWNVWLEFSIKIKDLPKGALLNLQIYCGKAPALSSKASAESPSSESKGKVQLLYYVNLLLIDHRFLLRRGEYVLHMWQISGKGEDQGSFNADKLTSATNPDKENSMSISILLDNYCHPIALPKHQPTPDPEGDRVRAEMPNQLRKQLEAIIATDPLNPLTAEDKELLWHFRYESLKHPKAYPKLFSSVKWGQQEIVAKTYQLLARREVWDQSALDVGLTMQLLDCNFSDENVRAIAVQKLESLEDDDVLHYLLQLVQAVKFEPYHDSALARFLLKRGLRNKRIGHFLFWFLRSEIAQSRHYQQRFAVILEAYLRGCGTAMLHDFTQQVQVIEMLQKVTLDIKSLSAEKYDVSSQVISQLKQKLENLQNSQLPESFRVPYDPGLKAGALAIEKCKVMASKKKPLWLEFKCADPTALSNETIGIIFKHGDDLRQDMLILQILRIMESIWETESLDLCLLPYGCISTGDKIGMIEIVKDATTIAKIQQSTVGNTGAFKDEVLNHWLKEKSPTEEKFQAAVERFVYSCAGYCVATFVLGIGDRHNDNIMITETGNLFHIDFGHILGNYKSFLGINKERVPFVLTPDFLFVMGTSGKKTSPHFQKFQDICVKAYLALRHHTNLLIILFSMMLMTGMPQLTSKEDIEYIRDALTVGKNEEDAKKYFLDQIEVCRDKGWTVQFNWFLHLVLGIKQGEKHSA
Kind of experiment: HTRF assay, p120γ. It is filed as biochemical. Particulars: PI3Kγ; read-out: PI3Kγ HTRF IC50 Inhibition Designation. In short, it runs like this: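 End-point competition-binding HTRF with 1-4 nM enzyme and 10 μM di-C8-PIP2, pre-incubated with compound 30 min at 25° C, then 50 μM ATP for 15-30 min at 25° C. HTRF ratio (665/620 nm) gave % inhibition; IC50 from variable-slope log-dose fit.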
(TR-FRET usually uses a lanthanide donor and a delayed reading to cut background.)

The next experiment has as its target T7, p110α/p85α (PI3Kα) (Homo sapiens, UniProt P42336).
T7 construct: purchased BPS Bioscience or Millipore 40620 (BPS Bioscience) or 14-602 (Millipore)
As to the kind of experiment: HTRF assay, p110α/p85α. It is filed as biochemical. Particulars: read-out: PI3Kα-HTRF-IC50 nM Inhibition Designation.

A further experiment concerns HCT116. As to the kind of experiment: HCT116-WB assay. The following applies: Homo sapiens, HCT-116; read-out: HCT116-WB Inhibition Designation. The class given is cell-based.
The target of a further experiment is T8, p110β/p85α (PI3Kβ) (Homo sapiens, UniProt P42338).
T8 construct: purchased Millipore 14-603
T8 sequence (P42338 whole entry): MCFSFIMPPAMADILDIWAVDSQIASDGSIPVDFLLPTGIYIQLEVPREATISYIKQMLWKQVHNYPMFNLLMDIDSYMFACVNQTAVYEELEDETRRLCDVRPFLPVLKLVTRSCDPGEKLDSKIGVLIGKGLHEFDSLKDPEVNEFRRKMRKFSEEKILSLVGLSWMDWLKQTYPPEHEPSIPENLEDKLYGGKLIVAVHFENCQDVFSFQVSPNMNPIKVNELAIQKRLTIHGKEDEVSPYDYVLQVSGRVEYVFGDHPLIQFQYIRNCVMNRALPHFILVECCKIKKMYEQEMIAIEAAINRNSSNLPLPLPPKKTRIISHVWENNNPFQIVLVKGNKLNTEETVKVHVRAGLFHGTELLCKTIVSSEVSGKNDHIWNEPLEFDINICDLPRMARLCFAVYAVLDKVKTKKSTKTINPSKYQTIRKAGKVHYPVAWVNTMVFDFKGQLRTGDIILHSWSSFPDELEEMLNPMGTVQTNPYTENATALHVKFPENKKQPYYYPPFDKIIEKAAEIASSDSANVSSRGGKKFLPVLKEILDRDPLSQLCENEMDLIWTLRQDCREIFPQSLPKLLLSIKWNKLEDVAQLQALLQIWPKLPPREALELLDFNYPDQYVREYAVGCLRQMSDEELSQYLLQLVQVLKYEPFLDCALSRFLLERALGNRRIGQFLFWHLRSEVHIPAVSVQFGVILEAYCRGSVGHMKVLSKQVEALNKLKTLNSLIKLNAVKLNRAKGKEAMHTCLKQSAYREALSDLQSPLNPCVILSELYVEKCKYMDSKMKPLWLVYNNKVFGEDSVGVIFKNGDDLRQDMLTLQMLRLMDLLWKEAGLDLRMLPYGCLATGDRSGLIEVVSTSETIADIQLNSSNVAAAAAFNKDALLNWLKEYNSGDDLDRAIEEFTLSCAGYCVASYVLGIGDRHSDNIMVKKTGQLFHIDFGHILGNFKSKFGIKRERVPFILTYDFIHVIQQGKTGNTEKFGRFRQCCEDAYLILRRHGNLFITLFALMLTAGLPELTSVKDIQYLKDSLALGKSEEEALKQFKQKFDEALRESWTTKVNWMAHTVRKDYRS
T8 sequence (P27986 whole entry partner): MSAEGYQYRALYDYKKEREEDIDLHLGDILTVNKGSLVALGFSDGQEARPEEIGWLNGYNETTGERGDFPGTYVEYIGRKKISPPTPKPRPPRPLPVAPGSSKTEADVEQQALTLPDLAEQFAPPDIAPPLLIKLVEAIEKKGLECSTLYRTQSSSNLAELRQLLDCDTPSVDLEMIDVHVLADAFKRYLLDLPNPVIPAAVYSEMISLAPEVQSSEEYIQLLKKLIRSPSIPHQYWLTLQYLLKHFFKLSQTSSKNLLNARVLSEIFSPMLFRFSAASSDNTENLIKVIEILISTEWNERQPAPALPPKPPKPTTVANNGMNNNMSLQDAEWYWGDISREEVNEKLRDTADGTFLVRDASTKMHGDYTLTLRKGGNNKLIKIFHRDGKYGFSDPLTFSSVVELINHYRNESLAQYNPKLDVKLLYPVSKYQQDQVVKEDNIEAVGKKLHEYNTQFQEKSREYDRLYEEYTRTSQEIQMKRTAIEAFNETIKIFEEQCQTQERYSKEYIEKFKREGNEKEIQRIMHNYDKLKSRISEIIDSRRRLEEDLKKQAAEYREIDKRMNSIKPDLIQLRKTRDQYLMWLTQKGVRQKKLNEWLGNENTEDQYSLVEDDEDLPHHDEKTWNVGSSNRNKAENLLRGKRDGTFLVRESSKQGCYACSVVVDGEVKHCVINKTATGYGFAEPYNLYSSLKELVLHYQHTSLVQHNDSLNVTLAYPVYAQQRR
Kind of experiment: HTRF assay, p110β/p85α. The class given is biochemical. Particulars: read-out: PI3Kβ HTRF IC50 Inhibition Designation. The method, then:
The mechanics of the assay platform are best described by the vendor (Millipore, Billerica, Mass.) on their website at the following URL: http://www.millipore.com/coa/tech1/74jt4z.
Briefly, Stop solution (Stop A, #33-007 and Stop B, #33-009; 3:1 ratio) and Detection Mix (DMC, #33-015 with DMA, #33-011 and DMB, #33-013; 18:1:1 ratio) were prepared as recommended by the manufacturer ˜2 hrs prior to use. […] Lipid kinase reactions were started with the addition of 5 μL of ATP solution, mixed for 15 sec on a rotary plate shaker and incubated for 15-30 minutes at 25° C. Next, reactions were stopped with a 5 μL addition of Stop solution followed by a 5 μL volume of Detection Mix. […] At the conclusion of each assay, the HTRF ratio from fluorescence emission values for each well was calculated and % Inhibition determined from averaged controls wells. % Inhibition values for each compound re then plotted against inhibitor concentration to estimate IC50 from log [Inhibitor] vs Response, Variable Slope model in GraphPad Prism from GraphPad Software (San Diego, Calif.).

The target of a further experiment is PI3Kγ (Homo sapiens, UniProt P48736). Kind of experiment: MALDI MS of intact PI3Kγ incubated with compound. The following applies: 1 hr, 10-fold excess, 37° C. It is filed as binding. The procedure:
Intact PI3Kγ was incubated for 1 hr at a 10-fold excess of compound XXII-33 to protein at 37° C. 5 μL aliquots of the samples were diluted with 10 μL of 0.1% TFA prior to micro C4 Ziptipping directly onto the MALDI target plate using sinapinic acid as the desorption matrix (10 mg/mL in 0.1% TFA:Acetonitrile 50:50).

T4 sequence (Q13490 whole entry): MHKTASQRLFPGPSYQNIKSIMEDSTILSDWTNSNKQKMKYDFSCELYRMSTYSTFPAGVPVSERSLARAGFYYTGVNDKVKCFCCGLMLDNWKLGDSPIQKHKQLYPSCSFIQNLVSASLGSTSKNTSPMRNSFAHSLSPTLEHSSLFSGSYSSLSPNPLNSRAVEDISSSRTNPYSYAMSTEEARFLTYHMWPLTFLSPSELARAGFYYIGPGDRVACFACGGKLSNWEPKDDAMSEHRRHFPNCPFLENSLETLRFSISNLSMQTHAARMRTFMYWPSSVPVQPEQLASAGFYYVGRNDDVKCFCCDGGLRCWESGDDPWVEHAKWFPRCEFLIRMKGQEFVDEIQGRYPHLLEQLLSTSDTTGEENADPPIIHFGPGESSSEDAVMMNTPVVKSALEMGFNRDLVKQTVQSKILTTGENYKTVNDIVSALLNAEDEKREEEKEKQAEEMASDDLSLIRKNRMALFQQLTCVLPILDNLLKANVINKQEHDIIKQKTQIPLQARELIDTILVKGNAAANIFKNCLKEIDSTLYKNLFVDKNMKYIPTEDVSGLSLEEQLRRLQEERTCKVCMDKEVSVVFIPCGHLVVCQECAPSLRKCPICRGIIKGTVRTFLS
Sequence of PI3Kγ (P48736 whole entry): as the sequence (P48736 whole entry) above
T7 sequence (P42336 whole entry): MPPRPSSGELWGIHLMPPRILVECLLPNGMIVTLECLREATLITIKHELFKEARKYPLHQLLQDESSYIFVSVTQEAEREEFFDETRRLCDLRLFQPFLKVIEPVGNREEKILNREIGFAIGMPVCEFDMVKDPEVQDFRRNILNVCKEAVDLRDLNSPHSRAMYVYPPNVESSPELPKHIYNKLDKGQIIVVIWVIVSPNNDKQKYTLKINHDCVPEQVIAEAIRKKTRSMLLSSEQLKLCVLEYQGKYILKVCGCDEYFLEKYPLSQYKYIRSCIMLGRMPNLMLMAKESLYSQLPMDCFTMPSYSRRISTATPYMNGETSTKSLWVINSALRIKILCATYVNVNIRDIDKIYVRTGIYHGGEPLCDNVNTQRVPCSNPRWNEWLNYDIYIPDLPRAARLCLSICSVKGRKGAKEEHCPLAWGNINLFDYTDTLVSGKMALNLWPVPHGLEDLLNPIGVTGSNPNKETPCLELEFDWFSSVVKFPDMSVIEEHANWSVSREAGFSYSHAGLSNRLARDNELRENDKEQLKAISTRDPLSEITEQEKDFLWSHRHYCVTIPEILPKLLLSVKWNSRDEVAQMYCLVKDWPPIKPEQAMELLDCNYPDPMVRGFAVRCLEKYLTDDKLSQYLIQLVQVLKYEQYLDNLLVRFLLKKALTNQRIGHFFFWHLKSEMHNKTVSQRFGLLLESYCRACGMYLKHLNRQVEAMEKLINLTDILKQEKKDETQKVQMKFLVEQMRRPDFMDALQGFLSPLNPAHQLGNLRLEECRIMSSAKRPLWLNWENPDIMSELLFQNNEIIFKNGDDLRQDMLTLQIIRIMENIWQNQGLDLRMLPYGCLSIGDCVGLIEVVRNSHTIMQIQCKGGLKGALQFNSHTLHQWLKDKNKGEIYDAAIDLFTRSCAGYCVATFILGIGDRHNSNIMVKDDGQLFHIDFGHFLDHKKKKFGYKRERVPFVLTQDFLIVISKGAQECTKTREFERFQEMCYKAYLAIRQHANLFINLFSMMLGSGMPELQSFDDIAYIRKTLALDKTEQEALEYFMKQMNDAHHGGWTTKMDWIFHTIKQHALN
T7 sequence (P27986 whole entry partner): as the sequence (P27986 whole entry partner) above

In the case of `C=CC(=O)Nc1cccc(CNC(=O)[C@@H]2CC[C@@H]3CCCC[C@H](NC(=O)[C@H](C)NC)C(=O)N32)c1` [VII-1, (3S,6S,10aS)-N-(3-acrylamidobenzyl)-6-((S)-2-(methylamino)propanamido)-5-oxodecahydropyrrolo[1,2-a]azocine-3-carboxamide], in experiment [1], the Ki fell in the range of 100 to 1000 nM. In experiment [2], the “Ki XIAP” value stood at 161 nM. On XIAP, the “mass shift of XIAP” value was found to be 417 Da and the “modification of XIAP” value is recorded as “complete modification”. Moreover, the Ki on recombinant human cIAP-1 was 100 to 1000 nM.
With `C=CC(=O)Nc1cccc(CNC(=O)[C@@H]2CC[C@@H]3CCCC[C@H](NC(=O)[C@H](C)N(C)C(=O)OC(C)(C)C)C(=O)N32)c1` [VII-2], the Ki (in experiment [1]; on recombinant human cIAP-1) was more than 10000 nM in each case. In addition, in [2], the “Ki XIAP” value is on record as > 10,000 nM. The “Ki (XIAP) Inhibition Designation” value in experiment [2] (XIAP) is reported as “E (IC50≥10,000 nM)”.
With `CN[C@@H](C)C(=O)N[C@H]1CCCC[C@H]2CC[C@@H](C(=O)NCc3cccc(NC(=O)[C@H]4CCC(=O)O4)c3)N2C1=O` [VII-21], the Ki is 1000 to 10000 nM in experiment [1] and 100 to 1000 nM at recombinant human cIAP-1. Besides, the “mass shift of XIAP” value on XIAP is listed as 522 Da. Also, at XIAP, the “modification of XIAP” value is reported as “complete modification”.
Take `C=C[C@H]1C[C@@]1(NC(=O)[C@@H]1CC(Oc2nccc3cc(OC)ccc23)CN1C(=O)[C@H](CCC(=O)N1C[C@@H]2C[C@H]1C(=O)O2)NC(=O)CCCC(=O)NCCCOCCOCCOCCCNC(=O)CCCC[C@@H]1SC[C@@H]2NC(=O)N[C@@H]21)C(=O)NS(=O)(=O)C1CC1` (stereo partly drawn) [XVI-27, N1-((2S)-1-((2S)-2-((1S,2R)-1-(cyclopropylsulfonylcarbamoyl)-2-vinylcyclopropylcarbamoyl)-4-(6-methoxyisoquinolin-1-yloxy)pyrrolidin-1-yl)-1,5-dioxo-5-((1S,4S)-3-oxo-2-oxa-5-azabicyclo[2.2.1]heptan-5-yl)pentan-2-yl)-N5-(15-oxo-19-((3aS,4S,6aR)-2-oxohexahydro-1H-thieno[3,4-d]imidazol-4-yl)-4,7,10-trioxa-14-azanonadecyl)glutaramide]: the “modification by covalent probe” value at NS3/4A C159S is listed as “modifying NS3/4A C159S”.
Turning to `CC(C)Oc1c(N(C)Cc2cc3nc(-c4cccc(O)c4)nc(N4CCOCC4)c3s2)c(=O)c1=O` [XXII-11], the IC50 lay within 100 to 1000 nM on p120γ (PI3Kγ), 10 to 100 nM on p110α/p85α (PI3Kα) and 10 to 100 nM in the experiment on HCT116.
With `Nc1ncc(-c2nc(N3CCOCC3)c3sc(CN4CCN(C(=O)C5CC(=O)CC(=O)C5)CC4)cc3n2)cn1` [XXII-33, 5-(4-((2-(2-aminopyrimidin-5-yl)-4-morpholinothieno[3,2-d]pyrimidin-6-yl)methyl)piperazine-1-carbonyl)cyclohexane-1,3-dione], the IC50 on p120γ (PI3Kγ) lay within 100 to 1000 nM. For the same compound, on p110β/p85α (PI3Kβ), the IC50 is 100 to 1000 nM. Also, at PI3Kγ, the “mass shift of PI3Kγ” value was determined as 492 Da, the “mass shift of PI3Kγ as percent” value was determined as 90% and the “modification of PI3Kγ” value is on record as “complete modification”.
For the compound `CC1(C)Cc2nc(N3CCOc4ccc(-c5ccc(C(=O)N6C[C@@H]7C[C@H]6C(=O)O7)cc5)cc43)sc2C(=O)N1` [XXIII-8, (1S,4S)-5-(4-(4-(6,6-dimethyl-4-oxo-4,5,6,7-tetrahydrothiazolo[5,4-c]pyridin-2-yl)-3,4-dihydro-2H-benzo[b][1,4]oxazin-6-yl)benzoyl)-2-oxa-5-azabicyclo[2.2.1]heptan-3-one], the IC50 fell in the range of 100 to 1000 nM at p120γ (PI3Kγ), 100 to 1000 nM at p110α/p85α (PI3Kα) and 1000 to 10000 nM with HCT116.
